{"source": "patent US20230416330A1", "about": "“Optimized GIP Peptide Analogues” (Antag Therapeutics ApS, priority 2019, published 2023)", "key": {"[1]": {"assay": "Solubility by visual inspection of peptide solutions", "assay_type": "physicochemical", "conditions": "1 mg/ml, TFA, Phosphate (7.4)", "summary_of_the_method": "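Peptides dissolved at 1, 5, 7.5 or 15 mg/ml in 50 mM sodium phosphate pH 7.4 or water adjusted to pH 7.4 with NaOH, with gentle mixing. Immediate solubility judged visually as a clear, colorless solution.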"}, "[2]": {"assay": "Physical stability: fibril formation in Thioflavin T (ThT) assay with agitation", "assay_type": "physicochemical", "conditions": "1 mg/ml, TFA, Phosphate (7.4); 25° C., agitation", "summary_of_the_method": "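Peptides at 1, 5, 7.5 or 15 mg/ml in 50 mM sodium phosphate pH 7.4 or in water adjusted to pH 7.4 with NaOH, filtered 0.22 μm, with ThT added. Wells held a 3 mm silica bead under 300 rpm orbital agitation at 25° C. Emission at 486 nm tracked continuously; lag time = 10% of transition above baseline.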"}, "human GIP receptor": {"biological_target": "T1, human GIP receptor (Homo sapiens, UniProt P48546)", "T1 construct": "host or cells: HEK-293 cells, transient transfection (Lipofectamine 2000), cDNA in pCMV-Script vector", "T1 sequence (P48546 22-466)": "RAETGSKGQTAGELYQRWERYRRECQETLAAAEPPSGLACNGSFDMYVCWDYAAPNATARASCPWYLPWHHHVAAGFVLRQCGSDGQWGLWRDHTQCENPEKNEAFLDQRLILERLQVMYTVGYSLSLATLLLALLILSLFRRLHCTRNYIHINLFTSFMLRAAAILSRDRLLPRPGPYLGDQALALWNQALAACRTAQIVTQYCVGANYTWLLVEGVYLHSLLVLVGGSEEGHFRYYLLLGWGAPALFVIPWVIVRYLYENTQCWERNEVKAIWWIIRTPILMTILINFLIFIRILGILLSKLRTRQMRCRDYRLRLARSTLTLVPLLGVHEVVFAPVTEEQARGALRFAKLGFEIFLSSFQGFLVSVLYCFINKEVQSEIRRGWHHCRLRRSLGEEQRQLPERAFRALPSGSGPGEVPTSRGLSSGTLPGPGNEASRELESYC", "assay": "cAMP assay Alternative 2 (Gaddum assay), antagonist potency pKb", "assay_type": "cell-based", "description": "HEK293 cells were cultured in 10% CO2 and 37° C. in Dulbecco's modified Eagle's medium supplemented with 10% fetal bovine serum, 2 mM glutamine, 180 units/ml penicillin, and 45 µg/ml streptomycin. Transient transfection with hGIPR for the CisBio assay from Table 2C was performed by using Lipofectamine 2000.\nAntagonist potency (pKb) was estimated in a functional setting. The estimated pKb values were calculated from the shifts of the agonist-concentration-response curves in the presence of a single dose of GIP peptide antagonists using the Gaddum equation: pKb=log(DR-1)-log(B), where DR (EC50′/EC50) is the dose ratio calculated from EC50 of GIP1-42 obtained in the presence and absence (EC50) of antagonist, and B is the antagonist concentration used.\nThe in vitro functional assessment of compounds towards human GIP receptor was determined in HEK-293 cells transiently expressing the receptor. On the day of the assay, cells were resuspended in HBSS buffer (Gibco, 14025-50) supplemented with […] (Gibco, 15630-106), 0.1% Pluronic F-68 (Gibco, 24040-032) and 0.1% casein (Sigma, C4765), and plated in 384-well plates at a density of 3500 cells/well. The GIP peptide analogues of the present disclosure were diluted in HBSS buffer supplemented with 20 mM HEPES, 0.1% pluronic, 0.1% casein and 500 uM IBMX. […] Increasing dose of agonist (GIP1-42) was subsequently added to cells and incubated for additionally 30 min at 37° C. The intracellular cAMP was quantitatively determined using the CisBio cAMP Dynamic 2 HTRF Assay Kit. The assay is based on a competition between native cAMP produced by cells and cAMP labeled with the dye d2 for binding to a cryptate labeled antibody. The specific signal (i.e. energy transfer signal) is inversely proportional to the concentration of cAMP in the sample.\nThe cAMP-d2 conjugate and the antibody anti-cAMP-Cryptate, both diluted in lysis buffer provided in the kit, were added to the cells according to the manufacturer's protocol. The resulting competitive assay was incubated for 60 minutes at room temperature, and the signal was detected by using a PerkinElmer Envision® instrument with excitation at 320 nm and emission at 665 nm and 620 nm. The HTRF ratio (emission at 665 nm/620 nm*10,000) is inversely proportional to the amount of cAMP present and is converted to nM cAMP per well using a cAMP standard curve."}, "[3]": {"conditions": "Table 2C, Gaddum equation, single antagonist dose, HEK-293 hGIPR, read-out: nM (Kb)"}}, "note": "Read-outs that look alike come from different tables or passages of the source. Starred links: 1 amine or outer side, 2 acyl side, 3 side chain; linkers in the order of their positions; H or OH if unused. Non-standard residues stand in square brackets, D forms with d. Residues, ends and D or L forms follow the SMILES beside them. Groups on a side chain read outwards from the residue. *: point of attachment. C18 diacid = O=C(O)CCCCCCCCCCCCCCCCC(=O)*; C16 diacid = O=C(O)CCCCCCCCCCCCCCC(=O)*; γGlu = O=C(O)[C@H](CCC(=O)[*:2])N[*:1]; Adipoyl = O=C(CCCCC(=O)[*:2])[*:1]; Glutaryl = O=C(CCCC(=O)[*:2])[*:1]; AEEA = NCCOCCOCC(=O)O; Aib = CC(C)(N)C(=O)O", "data": [{"compound": "CC[C@H](C)[C@H](NC(=O)[C@H](CO)NC(=O)[C@H](Cc1ccc(O)cc1)NC(=O)[C@H](CC(=O)O)NC(=O)[C@H](CO)NC(=O)[C@@H](NC(=O)[C@H](Cc1ccccc1)NC(=O)[C@@H](NC(=O)CNC(=O)[C@@H](N)CCC(=O)O)[C@@H](C)O)[C@@H](C)CC)C(=O)N[C@@H](C)C(=O)N[C@@H](CCSC)C(=O)N[C@@H](CC(=O)O)C(=O)N[C@@H](CCCCN)C(=O)N[C@H](C(=O)N[C@@H](CCCCNC(=O)CCCCCCCCCCCCCCC(=O)O)C(=O)N[C@@H](CCC(N)=O)C(=O)N[C@@H](CCC(N)=O)C(=O)N[C@@H](CC(=O)O)C(=O)N[C@@H](Cc1ccccc1)C(=O)N[C@H](C(=O)N[C@@H](CCC(=O)O)C(=O)N[C@@H](Cc1c[nH]c2ccccc12)C(=O)N[C@@H](CC(C)C)C(=O)N[C@@H](CC(C)C)C(=O)N[C@@H](C)C(=O)N[C@@H](CCC(=O)O)C(=O)N[C@@H](CCCCN)C(=O)N1CCC[C@H]1C(=O)N[C@@H](CO)C(=O)N[C@@H](CO)C(=O)NCC(=O)N[C@@H](C)C(=O)N1CCC[C@H]1C(=O)N1CCC[C@H]1C(=O)N1CCC[C@H]1C(=O)N[C@@H](CO)C(=O)O)C(C)C)[C@@H](C)CC", "note": "[AT747] (H-EGTFISDYSIAMDKIK(C16 diacid)QQDFVEWLLAEKPSSGAPPPS-OH; N-terminus assumed)", "values": [{"measurement": "Visual appearance", "setting": "[1]", "result": "Clear"}, {"measurement": "Avr lag time", "setting": "[2]", "result": "<24", "unit": "h"}, {"measurement": "Kb", "setting": "human GIP receptor", "result": 14, "unit": "nM"}]}, {"compound": "CC[C@H](C)[C@H](NC(=O)[C@H](CCCCN)NC(=O)[C@H](CCC(=O)O)NC(=O)[C@H](CC(C)C)NC(=O)C(C)(C)NC(=O)[C@@H](NC(=O)[C@H](CO)NC(=O)[C@H](Cc1ccc(O)cc1)NC(=O)[C@H](CCC(=O)O)NC(=O)[C@H](CO)NC(=O)[C@@H](NC(=O)[C@H](Cc1ccccc1)NC(=O)[C@@H](NC(=O)CNC(=O)CCCC(=O)O)[C@@H](C)O)[C@@H](C)CC)[C@@H](C)CC)C(=O)N[C@@H](CCCCNC(=O)COCCOCCNC(=O)COCCOCCNC(=O)CC[C@H](NC(=O)CCCCCCCCCCCCCCCCC(=O)O)C(=O)O)C(=O)N[C@@H](CCC(N)=O)C(=O)N[C@@H](CCC(N)=O)C(=O)N[C@@H](CCC(=O)O)C(=O)N[C@@H](Cc1ccccc1)C(=O)N[C@H](C(=O)N[C@@H](CCC(=O)O)C(=O)N[C@@H](Cc1c[nH]c2ccccc12)C(=O)N[C@@H](CC(C)C)C(=O)N[C@@H](CC(C)C)C(=O)N[C@@H](C)C(=O)N[C@@H](CCC(N)=O)C(=O)N[C@@H](CCCCN)C(=O)N1CCC[C@H]1C(=O)N[C@@H](CO)C(=O)N[C@@H](CO)C(=O)NCC(=O)N[C@@H](C)C(=O)N1CCC[C@H]1C(=O)N1CCC[C@H]1C(=O)N1CCC[C@H]1C(=O)N[C@@H](CO)C(=O)O)C(C)C", "note": "[AT705] (Glutaryl-GTFISEYSI[Aib]LEKIK([AEEA-AEEA-γGlu-C18 diacid])QQEFVEWLLAQKPSSGAPPPS-OH)", "values": [{"measurement": "Visual appearance", "setting": "[1]", "result": "Clear"}, {"measurement": "Avr lag time (h)", "setting": "[2]", "result": "fnd (Fnd = fibrils not detected within experiment time (96 hours) with agitation.)"}, {"measurement": "Kb", "setting": "human GIP receptor; [3]", "result": 0.23, "unit": "nM"}]}, {"compound": "CC[C@H](C)[C@H](NC(=O)[C@H](CCCCN)NC(=O)[C@H](CCC(=O)O)NC(=O)[C@H](CCSC)NC(=O)C(C)(C)NC(=O)[C@@H](NC(=O)[C@H](CO)NC(=O)[C@H](Cc1ccc(O)cc1)NC(=O)[C@H](CCC(=O)O)NC(=O)[C@H](CO)NC(=O)[C@@H](NC(=O)[C@H](Cc1ccccc1)NC(=O)[C@@H](NC(=O)CNC(=O)[C@@H](N)CCC(=O)O)[C@@H](C)O)[C@@H](C)CC)[C@@H](C)CC)C(=O)N[C@@H](CCCCNC(=O)CCCCCCCCCCCCCCC(=O)O)C(=O)N[C@@H](CCC(N)=O)C(=O)N[C@@H](CCC(N)=O)C(=O)N[C@@H](CC(=O)O)C(=O)N[C@@H](Cc1ccccc1)C(=O)N[C@H](C(=O)N[C@@H](CCC(=O)O)C(=O)N[C@@H](Cc1c[nH]c2ccccc12)C(=O)N[C@@H](CC(C)C)C(=O)N[C@@H](CC(C)C)C(=O)N[C@@H](C)C(=O)N[C@@H](CCC(N)=O)C(=O)N[C@@H](CCCCN)C(=O)N1CCC[C@H]1C(=O)N[C@@H](CO)C(=O)N[C@@H](CO)C(=O)NCC(=O)N[C@@H](C)C(=O)N1CCC[C@H]1C(=O)N1CCC[C@H]1C(=O)N1CCC[C@H]1C(=O)N[C@@H](CO)C(=O)O)C(C)C", "note": "[AT716] (H-EGTFISEYSI[Aib]MEKIK(C16 diacid)QQDFVEWLLAQKPSSGAPPPS-OH; N-terminus assumed)", "values": [{"measurement": "Kb", "setting": "human GIP receptor; [3]", "result": 0.29, "unit": "nM"}]}, {"compound": "CC[C@H](C)[C@H](NC(=O)[C@H](CO)NC(=O)[C@H](Cc1ccc(O)cc1)NC(=O)[C@H](CCC(=O)O)NC(=O)[C@H](CO)NC(=O)[C@@H](NC(=O)[C@H](Cc1ccccc1)NC(=O)[C@@H](NC(=O)CNC(=O)CCCC(=O)O)[C@@H](C)O)[C@@H](C)CC)C(=O)N[C@@H](C)C(=O)N[C@@H](CC(C)C)C(=O)N[C@@H](CCC(=O)O)C(=O)N[C@@H](CCCCN)C(=O)N[C@H](C(=O)N[C@@H](CCCCNC(=O)COCCOCCNC(=O)COCCOCCNC(=O)CC[C@H](NC(=O)CCCCCCCCCCCCCCCCC(=O)O)C(=O)O)C(=O)N[C@@H](CCC(N)=O)C(=O)N[C@@H](CCC(N)=O)C(=O)N[C@@H](CCC(=O)O)C(=O)N[C@@H](Cc1ccccc1)C(=O)N[C@H](C(=O)N[C@@H](CCC(=O)O)C(=O)N[C@@H](Cc1c[nH]c2ccccc12)C(=O)N[C@@H](CC(C)C)C(=O)N[C@@H](CC(C)C)C(=O)N[C@@H](C)C(=O)N[C@@H](CCC(N)=O)C(=O)N[C@@H](CCCCN)C(=O)N1CCC[C@H]1C(=O)N[C@@H](CO)C(=O)N[C@@H](CO)C(=O)NCC(=O)N[C@@H](C)C(=O)N1CCC[C@H]1C(=O)N1CCC[C@H]1C(=O)N1CCC[C@H]1C(=O)N[C@@H](CO)C(=O)O)C(C)C)[C@@H](C)CC", "note": "[AT707] (Glutaryl-GTFISEYSIALEKIK([AEEA-AEEA-γGlu-C18 diacid])QQEFVEWLLAQKPSSGAPPPS-OH)", "values": [{"measurement": "Kb", "setting": "human GIP receptor; [3]", "result": 0.28, "unit": "nM"}]}, {"compound": "CC[C@H](C)[C@H](NC(=O)[C@H](CCCCN)NC(=O)[C@H](CCC(=O)O)NC(=O)[C@H](CC(C)C)NC(=O)C(C)(C)NC(=O)[C@@H](NC(=O)[C@H](CO)NC(=O)[C@H](Cc1ccc(O)cc1)NC(=O)[C@H](CCC(=O)O)NC(=O)[C@H](CO)NC(=O)[C@@H](NC(=O)[C@H](Cc1ccccc1)NC(=O)[C@@H](NC(=O)CNC(=O)CCCCC(=O)O)[C@@H](C)O)[C@@H](C)CC)[C@@H](C)CC)C(=O)N[C@@H](CCCCNC(=O)COCCOCCNC(=O)COCCOCCNC(=O)CC[C@H](NC(=O)CCCCCCCCCCCCCCCCC(=O)O)C(=O)O)C(=O)N[C@@H](CCC(N)=O)C(=O)N[C@@H](CCC(N)=O)C(=O)N[C@@H](CCC(=O)O)C(=O)N[C@@H](Cc1ccccc1)C(=O)N[C@H](C(=O)N[C@@H](CCC(=O)O)C(=O)N[C@@H](Cc1c[nH]c2ccccc12)C(=O)N[C@@H](CC(C)C)C(=O)N[C@@H](CC(C)C)C(=O)N[C@@H](C)C(=O)N[C@@H](CCC(N)=O)C(=O)N[C@@H](CCCCN)C(=O)N1CCC[C@H]1C(=O)N[C@@H](CO)C(=O)N[C@@H](CO)C(=O)NCC(=O)N[C@@H](C)C(=O)N1CCC[C@H]1C(=O)N1CCC[C@H]1C(=O)N1CCC[C@H]1C(=O)N[C@@H](CO)C(=O)O)C(C)C", "note": "[AT753] (Adipoyl-GTFISEYSI[Aib]LEKIK([AEEA-AEEA-γGlu-C18 diacid])QQEFVEWLLAQKPSSGAPPPS-OH)", "values": [{"measurement": "Kb", "setting": "human GIP receptor; [3]", "result": 0.23, "unit": "nM"}]}]}
